Laboratory results as given in patent US20170044208A1, “SELECTIVE GLUCOCORTICOID RECEPTOR LIGANDS” (The University of Manchester, priority 2013, published 2017).
Read-outs that look alike come from different tables or passages of the source.

Tests used:
NFkB = experiment: Transrepression assay (NFκB-LUC reporter in HeLa cells, TNF stimulated); type: cell-based; details: for Emax / IC50: Homo sapiens, HeLa; for Emax: 16 h, read-out: TR Max %
Method: HeLa cells were seeded at 80×10^4 cells/dish in 100 mm dishes. Cells were transfected the next day with NFκB-LUC reporter (5 μg) and pGL4-hRLuc (0.1 μg), in 0.25 mL of Opti-MEM I using FuGENE HD (15 μL). After 24 hours, cells were trypsinized and seeded in to 24-well plates at a density of 8-10×10^4 cells/mL. Following overnight incubation, cells were starved for a further 24 hours in DMEM.
On the day of the experiment, compounds were added to cells one hour prior to the addition of […] (0.5 ng/mL). After a further 16 hours, cells were washed twice with ice-cold PBS, then lysed with 100 μL of 1×PLB.
(§1) Firefly and Renilla luciferase activity was measured using the Dual Luciferase Reporter system following the manufacturer's protocol.
(§2) IC50 and EC50 values were calculated by using GraphPad Prism 5.0. Briefly, luminescence values for luciferase were normalised using the Renilla luminescence values. The normalised values were input into GraphPad Prism 5.0. Non-linear regression analysis was carried out using the “log(concentration) vs. response” equation of the software, with a Hill slope coefficient fixed at 1.
(§3) IC50 and EC50 values are mean values in nM of all IC50/EC50 values for the compound. Max % values are mean values of the Max% activity.

[1] = biological target: T1, Glucocorticoid Receptor (GR) (Homo sapiens, UniProt P04150); experiment: Transactivation assay (MMTV-Luc reporter in HeLa cells); type: cell-based
T1 construct: Cells were transfected the next day with MMTV-Luc (5 μg) and pGL4-hRLuc (0.1 μg); endogenous in cells; host or cells: HeLa
T1 sequence (P04150 1-777): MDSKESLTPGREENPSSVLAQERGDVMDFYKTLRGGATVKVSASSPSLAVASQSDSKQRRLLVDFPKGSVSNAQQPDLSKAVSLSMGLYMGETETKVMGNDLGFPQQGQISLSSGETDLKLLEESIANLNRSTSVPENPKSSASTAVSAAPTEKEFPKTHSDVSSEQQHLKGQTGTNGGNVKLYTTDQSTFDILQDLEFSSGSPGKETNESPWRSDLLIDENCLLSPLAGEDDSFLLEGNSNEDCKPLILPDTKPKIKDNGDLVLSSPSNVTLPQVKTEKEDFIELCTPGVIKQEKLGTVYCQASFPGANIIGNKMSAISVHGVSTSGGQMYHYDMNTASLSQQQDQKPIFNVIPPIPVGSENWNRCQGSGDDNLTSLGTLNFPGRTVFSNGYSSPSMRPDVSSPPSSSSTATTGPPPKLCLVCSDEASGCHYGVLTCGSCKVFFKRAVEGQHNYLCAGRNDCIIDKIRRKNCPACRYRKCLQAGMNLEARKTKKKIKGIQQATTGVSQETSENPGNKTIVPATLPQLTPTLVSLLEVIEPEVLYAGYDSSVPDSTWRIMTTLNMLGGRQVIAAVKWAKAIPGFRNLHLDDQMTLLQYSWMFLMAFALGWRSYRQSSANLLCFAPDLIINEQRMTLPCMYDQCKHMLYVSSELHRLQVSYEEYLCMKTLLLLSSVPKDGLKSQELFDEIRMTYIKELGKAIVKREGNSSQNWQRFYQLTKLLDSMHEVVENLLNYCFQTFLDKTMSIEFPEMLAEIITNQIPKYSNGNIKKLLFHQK
Method: HeLa cells were seeded at 80×10^4 cells/dish in 100 mm dishes. Cells were transfected the next day with MMTV-Luc (5 μg) and pGL4-hRLuc (0.1 μg), in 250 μL of Opti-MEM I using FuGENE HD (15 μL). After 24 hours, cells were trypsinized and seeded into 96-well plates at a density of 8-10×10^4 cells/mL.
Following overnight incubation to allow attachment, cells were treated with the required concentration of compounds, then further incubated for 16 hours. Media was aspirated and cells lysed in 40 μL of 1×PLB.
as §1, §2, §3

[2] = concentration for half-maximal repression of NFkB, TNF 0.5 ng/mL, 16 hours, mean, read-out: TR IC50
[3] = concentration for half-maximal transactivation; HeLa, MMTV-Luc, 16 hours; mean; read-out: TA EC50

SMILES	Emax (NFkB) [%]	IC50 (NFkB; [2]) [nM]	Emax ([1]; HeLa, 16 h; read-out: TA Max %) [%]	EC50 [1, 3] [nM]	Emax ([1]; HeLa, 16 h, read-out: TA Max %) [%]	IC50 (NFkB; comparison table, half-maximal repression of NFkB, multiple experiments, read-out: IC50) [nM]	TR % (NFkB; comparison table, maximal NFkB repression compared to Dexamethasone) [%]	TA % ([1]; comparison table; against maximal activation seen with dexamethasone) [%]
C[C@@H]1C[C@H]2[C@@H]3CCC4=CC(=O)C=C[C@]4(C)[C@@]3(F)[C@@H](O)C[C@]2(C)[C@@]1(O)C(=O)NCCCc1ccc(F)cc1 [Compound 1]	90.8	8.41	21.3	868				
C[C@@H]1C[C@H]2[C@@H]3CCC4=CC(=O)C=C[C@]4(C)[C@@]3(F)[C@@H](O)C[C@]2(C)[C@@]1(O)C(=O)NCCCc1ccccn1 [Compound 2]	52.4	23.5	18.3	1180				
C[C@@H]1C[C@H]2[C@@H]3CCC4=CC(=O)C=C[C@]4(C)[C@@]3(F)[C@@H](O)C[C@]2(C)[C@@]1(O)C(=O)NCCCc1ccccc1O [Compound 3]	76	21.9	24.1	1150				
COc1ccc(OCCCNC(=O)[C@@]2(O)[C@H](C)C[C@H]3[C@@H]4CCC5=CC(=O)C=C[C@]5(C)[C@@]4(F)[C@@H](O)C[C@@]32C)cc1 [Compound 4]	106	3.95		69.2	39.4			
C[C@@H]1C[C@H]2[C@@H]3CCC4=CC(=O)C=C[C@]4(C)[C@@]3(F)[C@@H](O)C[C@]2(C)[C@@]1(O)C(=O)NCCOc1ccc(F)cc1 [Compound 5]	104	8.13	27.2	321				
C[C@@H]1C[C@H]2[C@@H]3CCC4=CC(=O)C=C[C@]4(C)[C@@]3(F)[C@@H](O)C[C@]2(C)[C@@]1(O)C(=O)NCCCOc1ccc(F)cc1 [Compound 6]	84.6	11.5	16	890				
COc1ccc(OCCNC(=O)[C@@]2(O)[C@H](C)C[C@H]3[C@@H]4CCC5=CC(=O)C=C[C@]5(C)[C@@]4(F)[C@@H](O)C[C@@]32C)cc1 [Compound 7]	97.3	19.4	44	294		1.22	98	44
C[C@@H]1C[C@H]2[C@@H]3CCC4=CC(=O)C=C[C@]4(C)[C@@]3(F)[C@@H](O)C[C@]2(C)[C@@]1(O)C(=O)NCCOc1ccccn1 [Compound 8]	95	5.69	49.7	248				
C[C@@H]1C[C@H]2[C@@H]3CCC4=CC(=O)C=C[C@]4(C)[C@@]3(F)[C@@H](O)C[C@]2(C)[C@@]1(O)C(=O)NCCCOc1ccc(C(F)(F)F)cc1 [Compound 9]	80.5	25	15.1	1110				
C[C@@H]1C[C@H]2[C@@H]3CCC4=CC(=O)C=C[C@]4(C)[C@@]3(F)[C@@H](O)C[C@]2(C)[C@@]1(O)C(=O)NCCOc1nc2ccccc2o1 [Compound 10]	55.1	35.4	4.79	3390				
C[C@@H]1C[C@H]2[C@@H]3CCC4=CC(=O)C=C[C@]4(C)[C@@]3(F)[C@@H](O)C[C@]2(C)[C@@]1(O)C(=O)NCCCc1ccccc1 [Compound 11]	88.8	30.2	36.5	114				
C[C@@H]1C[C@H]2[C@@H]3CCC4=CC(=O)C=C[C@]4(C)[C@@]3(F)[C@@H](O)C[C@]2(C)[C@@]1(O)C(=O)NCCOc1ccncc1 [Compound 12]	91.1	40.7	23.8	719				
COc1ccc(CCCNC(=O)[C@@]2(O)[C@H](C)C[C@H]3[C@@H]4CCC5=CC(=O)C=C[C@]5(C)[C@@]4(F)[C@@H](O)C[C@@]32C)cc1OC [Compound 13]	87.6	10.8	30	189				
C[C@@H]1C[C@H]2[C@@H]3CCC4=CC(=O)C=C[C@]4(C)[C@@]3(F)[C@@H](O)C[C@]2(C)[C@@]1(O)C(=O)NCCCc1cccc(F)c1 [Compound 14]	88.6	23.9	36.6	536				
